Results on 20 compounds are retold here after patent US12180226B2, “Spirotricycle RIPK1 inhibitors and methods of uses thereof” (Merck Sharp & Dohme LLC, priority 2021, dated 2024).

SMILES strings stand for the structures.

This test deals with RIPK1 (recombinant GST-RIPK1 kinase domain, residues 1-327) (Homo sapiens (Human), UniProt Q13546). Nature of the test: RIPK1-ADP-Glo Enzymatic Assay. As to conditions: ADP-Glo; 25 nM GST-RIPK1, 300 μM ATP; assay lower limit ~25 nM; read-out: RIPK1 V0 Ec50. In kind it is biochemical. Put shortly: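 ADP-Glo luminescence read after 150 min kinase reaction (300 μM ATP, 3 μM dephosphorylated MBP) using 25 nM Sf21-made GST-kinase domain (1-327), preincubated 30 min with compound. HEPES pH 7.3, 1% DMSO; ten-point 1:3 series from 100000 nM, EC50 via four-parameter sigmoidal regression.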
RIPK1 (recombinant GST-RIPK1 kinase domain, residues 1-327), sequence (Q13546 1-327): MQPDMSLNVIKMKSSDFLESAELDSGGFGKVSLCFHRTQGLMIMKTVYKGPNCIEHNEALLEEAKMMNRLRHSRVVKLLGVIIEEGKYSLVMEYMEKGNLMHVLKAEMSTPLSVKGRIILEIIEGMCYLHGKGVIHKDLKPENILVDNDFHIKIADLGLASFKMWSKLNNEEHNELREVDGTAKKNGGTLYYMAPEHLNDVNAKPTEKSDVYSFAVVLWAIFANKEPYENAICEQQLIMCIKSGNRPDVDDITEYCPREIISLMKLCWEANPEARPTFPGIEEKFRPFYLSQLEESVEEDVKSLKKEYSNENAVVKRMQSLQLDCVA
Background: ADP-Glo first removes unused ATP, then detects ADP through luciferase.
As a reminder, the EC50 is the concentration at which the effect is half-maximal. As to `Cc1ncccc1C(=O)N1CCC2(CC1)O[C@@H]1CC[C@@H](c3cc(F)cc(F)c3)N1C2=O` [Example 6.52, (5′S,7a′R)-5′-(3,5-difluorophenyl)-1-(2-methylpyridine-3-carbonyl)tetrahydro-3′H-spiro[piperidine-4,2′-pyrrolo[2,1-b] [1,3]oxazol]-3′-one], the EC50 was 528 nM. Under `N#Cc1ccc(N2CCC3(CC2)O[C@@H]2CC[C@@H](c4ccccc4)N2C3=O)n2ncc(C#N)c12` [Example 4.178, 7-[(5′S,7a′R)-3′-oxo-5′-phenyltetrahydro-1H,3′H-spiro[piperidine-4,2′-pyrrolo[2,1-b] [1,3]oxazol]-1-yl]pyrazolo[1,5-a] pyridine-3,4-dicarbonitrile] stands below 25 nM. Under `O=C1N2[C@@H](CC[C@H]2c2cc(F)cc(F)c2)OC12CCN(c1ccnc(C(F)F)n1)CC2` [Example 4.9, (5′S,7a′R)-1-[2-(difluoromethyl)pyrimidin-4-yl]-5′-(3,5-difluorophenyl)tetrahydro-3′H-spiro[piperidine-4,2′-pyrrolo[2,1-b] [1,3]oxazol]-3′-one] stands below 25 nM. Consider `O=C1N2[C@@H](CC[C@H]2c2ccccc2F)OC12CCN(c1cc(Cl)ncn1)CC2` [Example 4.99, (5′S,7a′R)-1-(6-chloropyrimidin-4-yl)-5′-(2-fluorophenyl)tetrahydro-3′H-spiro[piperidine-4,2′-pyrrolo[2,1-b]oxazol]-3′-one], for which the EC50 is below 25 nM.

In the case of `N#Cc1cnn2c(N3CCC4(CC3)O[C@@H]3CC[C@@H](c5ccccc5)N3C4=O)ncnc12` [Example 4.218, 4-[(5′S,7a′R)-3′-oxo-5′-phenyltetrahydro-1H,3′H-spiro[piperidine-4,2′-pyrrolo[2,1-b] [1,3]oxazol]-1-yl]pyrazolo[1,5-a] [1,3,5]triazine-8-carbonitrile], the EC50 is below 25 nM.

In the case of `N#Cc1cc(C(=O)N2CCC3(CC2)O[C@@H]2CC[C@@H](c4cccc(F)c4)N2C3=O)ccc1F` [Example 6.113, 2-fluoro-5-[(5′S,7a′R)-5′-(3-fluorophenyl)-3′-oxotetrahydro-1H,3′H-spiro[piperidine-4,2′-pyrrolo[2,1-b][1,3]-oxazole]-1-carbonyl] benzonitrile], the EC50 was below 25 nM. With `N#Cc1cscc1[C@@H]1CC[C@H]2OC3(CCN(C(=O)c4ccccc4)CC3)C(=O)N21` [Example 17.13, 4-((5′S,7a′R)-1-benzoyl-3′-oxotetrahydro-3′H-spiro[piperidine-4,2′-pyrrolo[2,1-b]oxazol]-5′-yl)thiophene-3-carbonitrile] the figure was 208 nM; with `O=C(c1cc(I)c(I)c(I)c1)N1CCC2(CC1)O[C@@H]1CC[C@@H](c3cc(F)cc(F)c3)N1C2=O` [Example 5.65, (5′S,7a′R)-5′-(3,5-difluoro-phenyl)-1-(3,4,5-triiodo-benzoyl)tetrahydro-3′H-spiro[piperidine-4,2′-pyrrolo[2,1-b]oxazol]-3′-one], 244 nM; with `O=C(c1ccccc1F)N1CCC2(CC1)O[C@@H]1CC[C@@H](c3ccccc3F)N1C2=O` [Example 1.16, (5′S,7a′R)-1-(2-fluorobenzoyl)-5′-(2-fluorophenyl)tetrahydro-3′H-spiro[piperidine-4,2′-pyrrolo[2,1-b]oxazol]-3′-one], below 25 nM. Consider `NC(=O)c1ccc(N2CCC3(CC2)O[C@@H]2CC[C@@H](c4ccccc4)N2C3=O)n2ncnc12` [Example 4.212, 5-[(5′S,7a′R)-3′-oxo-5′-phenyltetrahydro-1H,3′H-spiro[piperidine-4,2′-pyrrolo[2,1-b] [1,3]oxazol]-1-yl] [1,2,4]triazolo[1,5-a] pyridine-8-carboxamide], for which the EC50 is below 25 nM. On to `O=C(c1cc(F)ccc1F)N1CCC2(CC1)O[C@@H]1CC[C@@H](c3ccccc3F)N1C2=O` [Example 1.12, (5′S,7a′R)-1-(2,5-difluorobenzoyl)-5′-(2-fluorophenyl)tetrahydro-3′H-spiro[piperidine-4,2′-pyrrolo[2,1-b]oxazol]-3′-one], for which the EC50 was below 25 nM.

On to `O=C1N2[C@@H](CC[C@H]2c2ccc(F)cc2)OC12CCN(c1ccnc3c(F)cnn13)CC2` [Example 4.124, (5′S,7a′R)-5′-(4-fluorophenyl)-1-(3-fluoropyrazolo[1,5-a]pyrimidin-7-yl)tetrahydro-3′H-spiro[piperidine-4,2′-pyrrolo[2,1-b] [1,3]oxazol]-3′-one], for which the EC50 was below 25 nM.

In the case of `O=C(c1ccccc1)N1CCC2(CC1)O[C@@H]1CC[C@@H](c3cnc4c(c3)CCC4)N1C2=O` [Example 17.12, (5′S,7a′R)-1-benzoyl-5′-(6,7-dihydro-5H-cyclopenta[b]pyridin-3-yl)tetrahydro-3′H-spiro[piperidine-4,2′-pyrrolo[2,1-b]oxazol]-3′-one], the EC50 came out at 342 nM.

Consider `COC(=O)N1CCC2(CC1)O[C@@H]1CC[C@@H](c3cc(F)cc(F)c3)N1C2=O` [Example 1.2, methyl (5′S,7a′R)-5′-(3,5-difluorophenyl)-3′-oxotetrahydro-1H,3′H-spiro[piperidine-4,2′-pyrrolo[2,1-b] [1,3]oxazole]-1-carboxylate], for which the EC50 is 115 nM.

For the compound `O=C1N2[C@@H](CC[C@H]2c2ccccc2F)OC12CCN(c1ncnc3ccnn13)CC2` [Example 4.252, (5′S,7a′R)-5′-(2-fluorophenyl)-1-(pyrazolo[1,5-a] [1,3,5]triazin-4-yl)tetrahydro-3′H-spiro[piperidine-4,2′-pyrrolo[2,1-b] [1,3]oxazol]-3′-one], the EC50 is below 25 nM.

Consider `Cc1nc(N2CCC3(CC2)O[C@@H]2CC[C@@H](c4ccccc4F)N2C3=O)ccc1C#N` [Example 4.105, 6-((5′S,7a′R)-5′-(2-fluorophenyl)-3′-oxotetrahydro-3′H-spiro[piperidine-4,2′-pyrrolo[2,1-b]oxazol]-1-yl)-2-methylnicotinonitrile], for which the EC50 was below 25 nM. With `CC1CC2(CCN1c1ccnc3ccnn13)O[C@@H]1CC[C@@H](c3ccccc3)N1C2=O` (stereo partly drawn) [Example 4.247, (4R,5′S,7a′R)-2-methyl-5′-phenyl-1-(pyrazolo[1,5-a]pyrimidin-7-yl)tetrahydro-3′H-spiro[piperidine-4,2′-pyrrolo[2,1-b] [1,3]oxazol]-3′-one] the figure was 86.5 nM; with `O=C1N2[C@@H](CC[C@H]2c2cc(F)cc(F)c2)OC12CCN(c1ncnc3c(F)cnn13)CC2` [Example 4.250, (5′S,7a′R)-5′-(3,5-difluorophenyl)-1-(8-fluoropyrazolo[1,5-a] [1,3,5]triazin-4-yl)tetrahydro-3′H-spiro[piperidine-4,2′-pyrrolo[2,1-b] [1,3]oxazol]-3′-one], below 25 nM; with `Cc1nc(C(=O)N2CCC3(CC2)O[C@@H]2CC[C@@H](c4cccc(F)c4)N2C3=O)c(C)o1` [Example 6.126, (5′S,7a′R)-1-(2,5-dimethyl-1,3-oxazole-4-carbonyl)-5′-(3-fluorophenyl)tetra-hydro-3′H-spiro[piperi-dine-4,2′-pyrrolo[2,1-b][1,3]oxazol]-3′-one], 619 nM. With `Cc1cc(C(=O)N2CCC3(CC2)O[C@@H]2CC[C@@H](c4cc(F)cc(F)c4)N2C3=O)ccc1C#N` [Example 5.18, 4-((5′S,7a′R)-5′-(3,5-difluorophenyl)-3′-oxo-tetrahydro-3′H-spiro [piperidine-4,2′-pyrrolo-[2,1-b]oxazole]-1-carbon-yl)-2-methylbenzonitrile] the figure was 138 nM.
